Assay [1] has as its target T1, Angiotensin II receptor (AT-1) type-1 (Rattus norvegicus, UniProt P29089+P25095).
T1 sequence (P29089 whole entry): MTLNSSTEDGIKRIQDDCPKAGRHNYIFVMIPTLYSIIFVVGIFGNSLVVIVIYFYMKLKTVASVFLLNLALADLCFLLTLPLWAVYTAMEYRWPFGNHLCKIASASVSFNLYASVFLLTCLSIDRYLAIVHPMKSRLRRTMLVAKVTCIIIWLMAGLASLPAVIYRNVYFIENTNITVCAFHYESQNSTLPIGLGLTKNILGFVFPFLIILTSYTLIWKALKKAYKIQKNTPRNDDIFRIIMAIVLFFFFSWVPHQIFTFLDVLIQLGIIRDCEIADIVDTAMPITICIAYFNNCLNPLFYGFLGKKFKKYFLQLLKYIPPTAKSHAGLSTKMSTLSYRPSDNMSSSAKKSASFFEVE
T1 sequence (P25095 whole entry): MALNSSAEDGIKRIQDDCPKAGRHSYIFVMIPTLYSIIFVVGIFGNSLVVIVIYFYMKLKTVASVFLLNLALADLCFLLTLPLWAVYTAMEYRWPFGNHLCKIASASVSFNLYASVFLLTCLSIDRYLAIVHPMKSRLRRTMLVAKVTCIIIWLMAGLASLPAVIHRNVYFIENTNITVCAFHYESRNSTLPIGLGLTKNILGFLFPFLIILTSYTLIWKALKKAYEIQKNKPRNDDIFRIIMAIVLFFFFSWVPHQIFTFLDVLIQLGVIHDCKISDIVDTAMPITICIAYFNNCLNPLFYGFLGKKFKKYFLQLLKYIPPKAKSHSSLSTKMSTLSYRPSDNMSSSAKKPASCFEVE
In words: Binding affinity expressed as IC50 to the Angiotensin II receptor, type 1, from rat liver membrane.

For assay [2], the target named is Angiotensin II receptor (AT-1) type-1 (Rattus norvegicus) (UniProt P29089+P25095). In words: Antihypertensive activity in renal hypertensive rats (RHR) at 30 mg/Kg dose after oral administration. In kind it is functional, organism-based.
The target in assay [3] is Angiotensin II receptor type-1 (Oryctolagus cuniculus) (UniProt P34976). In words: Inhibition of angiotensin II induced contraction in rabbit aortic ring, activity is expressed as IC50.
Assay [4] concerns Monkey. In words: Baseline blood pressure was determined at 10 mg/kg in salt-deplete Normotensive Monkeys. It counts as functional, Cercopithecidae.
Assay [5] concerns Monkey. In words: Minimum blood pressure was determined at 10 mg/kg in salt-deplete Normotensive Monkeys. It counts as functional, Cercopithecidae.
Assay [6] deals with Monkey. In words: blood pressure determined at 10 mg/kg in salt-deplete Normotensive Monkeys. In kind it is functional, Cercopithecidae.
Assay [7] has as its system Rattus norvegicus. In words: The compound was tested for antihypertensive activity in Renal Hypertensive Rats(RHR) at 10 mg/Kg dose after oral administration. It counts as functional.
In assay [8] the test system is Rattus norvegicus. Briefly: The compound was tested for antihypertensive activity in Renal Hypertensive Rats(RHR) at 30 mg/Kg dose after oral administration; inactive. In kind it is functional, organism-based.
Assay [9] relates to Rattus norvegicus. In words: The compound was tested for antihypertensive activity in Renal Hypertensive Rats(RHR) at following doses after oral administration. of 10 mg/kg. It counts as functional.
The subject of assay [10] is Monkey. Briefly: Blood pressure determined at 10 mg/kg in salt-deplete Normotensive Monkeys. In kind it is functional, Cercopithecidae.

The structures appear in SMILES notation. The source made the active and inactive calls. The rule behind the calls is not given here.

As a reminder, the IC50 is the concentration needed to halve the response being measured.

Angiotensin II receptor type-1 (Oryctolagus cuniculus), sequence (P34976 whole entry, looked up): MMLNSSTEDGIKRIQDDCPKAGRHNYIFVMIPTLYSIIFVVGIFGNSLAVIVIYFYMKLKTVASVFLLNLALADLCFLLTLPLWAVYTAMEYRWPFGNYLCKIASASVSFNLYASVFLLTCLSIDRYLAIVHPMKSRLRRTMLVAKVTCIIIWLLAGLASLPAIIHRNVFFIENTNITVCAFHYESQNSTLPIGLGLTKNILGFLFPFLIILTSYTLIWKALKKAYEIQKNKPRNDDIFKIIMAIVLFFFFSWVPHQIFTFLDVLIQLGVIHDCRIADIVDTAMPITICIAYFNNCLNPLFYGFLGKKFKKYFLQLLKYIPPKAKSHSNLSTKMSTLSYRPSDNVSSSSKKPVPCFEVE

With `CCCCc1ncc(/C=C2/C(=O)N(CCCC)C(=O)N2Cc2cccs2)n1Cc1ccc(C(=O)O)cc1`, the IC50 worked out at 0.7 nM in assay [1] and 13 nM in assay [3]. For the same molecule, the Maximum blood pressure change in [2] is -28%.
For the molecule `CCCCc1ncc(/C=C2/C(=O)N(CCCC)C(=O)N2Cc2ccno2)n1Cc1ccc(C(=O)OC)cc1`, the concentration for half-maximal inhibition (IC50) was 10.1 nM in assay [1] and over 100 nM in assay [3]. In assay [2], the Maximum blood pressure change is -23%.
`CCCCc1ncc(/C=C2/C(=O)NC(=O)N2Cc2cccs2)n1Cc1ccc(C(=O)O)cc1`: the IC50 is reported as 2.3 nM in [1] and 18 nM in [3]. In assay [2], the Maximum blood pressure change was -21%.
Take `CCCCc1ncc(/C=C2/C(=O)N(CCCC)C(=O)N2Cc2csc(C)n2)n1Cc1ccc(C(=O)OC)cc1`: the IC50 is on record as 3.8 nM in assay [1] and 350 nM in assay [3]. In addition, the figures for the Blood pressure in the assay on Monkey [4], in the assay on Monkey [5] and in the assay with Monkey [6] were 101 mmHg, 74 mmHg and 88 mmHg, respectively. In the assay on Rattus norvegicus [7], the Max is -25%. Further, the Maximum blood pressure change in assay [2] is -40%.
On to `CCCCc1ncc(/C=C2/C(=O)N(CCCC)C(=O)N2Cc2ccc(C)s2)n1Cc1ccc(C(=O)O)cc1`, for which the IC50 in assay [1] was determined as 0.6 nM; in [3], 5.3 nM. Besides, the Maximum blood pressure change in assay [2] was -22%.
For the molecule `CCCCc1ncc(/C=C2/C(=O)N(CCCC)C(=O)N2CCCC)n1Cc1ccc(C(=O)OC)cc1`, the IC50 in assay [1] is 8.5 nM; in assay [3], 460 nM. For the same molecule, the Maximum blood pressure change in assay [2] was -27%.
On to `CCCCc1ncc(/C=C2\C(=O)NC(=O)N2Cc2cccs2)n1Cc1ccc(C(=O)O)cc1`, for which, in assay [1], the IC50 is recorded as 2.6 nM. Besides, in the assay on Rattus norvegicus [8], the Max entry was “inactive”.
As for `CCCCc1ncc(/C=C2/C(=O)NC(=O)N2Cc2ccc(Cl)cc2)n1Cc1ccc(C(=O)O)cc1`, the IC50 in [1] is listed as 3 nM; in assay [3], 28 nM. For the same molecule, the Maximum blood pressure change in assay [2] is -17%.
Taken in the same sequence, the figures for `CCCCc1ncc(/C=C2/C(=O)NC(=O)N2CCCC)n1Cc1ccc(C(=O)OC)cc1` were 3.5 nM, 30 nM and -11%.
With `CCCCc1ncc(/C=C2\C(=O)NC(=O)N2CCCC)n1Cc1ccc(C(=O)O)cc1`, the Max result in the assay on Rattus norvegicus [8] is “inactive”. In [3], this molecule had an IC50 of 44 nM.
Take `CCCCc1ncc(/C=C2/C(=O)N(CCCC)C(=O)N2Cc2ccc(Cl)cc2)n1Cc1ccc(C(=O)OC)cc1`: the IC50 is listed as 17.6 nM in [1] and 500 nM in [3]. Further, in assay [2], the Maximum blood pressure change is -15%.
For the molecule `CCCCc1ncc(/C=C2/C(=O)N(CCCC)C(=O)N2Cc2csc(N)n2)n1Cc1ccc(C(=O)O)cc1`, the IC50 is on record as 0.6 nM in assay [1] and 2.9 nM in [3]. For the same molecule, the Max result in [2] was “inactive”.
Take `CCCCc1ncc(/C=C2/C(=O)N(CCCC)C(=O)N2Cc2cccs2)n1Cc1ccc(C(=O)OC)cc1`: the IC50 in assay [1] is on record as 3.4 nM; in assay [3], 370 nM. For the same molecule, in assay [2], the Maximum blood pressure change was -28%.
For the molecule `CCCCc1ncc(/C=C2/C(=O)N(CCCC)C(=O)N2Cc2ccoc2)n1Cc1ccc(C(=O)OC)cc1`, the IC50 in assay [1] was 8.3 nM; in [3], over 100 nM. In [2], the Maximum blood pressure change is -22%.
As to `CCCCc1ncc(/C=C2/C(=O)NC(=O)N2CCCC)n1Cc1ccc(NS(=O)(=O)C(F)(F)F)cc1`, the IC50 in [1] was determined as 3.3 nM; in assay [3], 120 nM. Moreover, the Maximum blood pressure change in assay [2] is -11%.
As to `CCCCc1ncc(/C=C2/C(=O)N(CCCC)C(=O)N2Cc2ccsc2)n1Cc1ccc(C(=O)O)cc1`, the IC50 in assay [1] came out at 0.9 nM; in assay [3], 10 nM. In addition, in assay [2], the Maximum blood pressure change was -42%. For the same molecule, the Max in the assay with Rattus norvegicus [9] is -28%.
Take `CCCCc1ncc(/C=C2/C(=O)NC(=O)N2CCCC)n1Cc1ccc(-c2nn[nH]n2)cc1`: the IC50 in assay [1] was 7.1 nM; in [3] it was 40 nM. Further, in assay [2], the Maximum blood pressure change came out at 0%.
For `CCCCc1ncc(/C=C2/C(=O)NC(=O)N2CCCC)n1Cc1ccc(-c2ccccc2-c2nn[nH]n2)cc1`, in that order: 1.4 nM, 40 nM and 0%.
Take `CCCCc1ncc(/C=C2/C(=O)N(CCCC)C(=O)N2Cc2csc(N)n2)n1Cc1ccc(C(=O)OC)cc1`: the IC50 in assay [1] was found to be 1.2 nM; in assay [3] it was 290 nM. Moreover, the Max in the assay on Rattus norvegicus [7] is reported as -39%. Also, the Maximum blood pressure change in [2] was -37%.
Turning to `CCCCc1ncc(/C=C2/C(=O)N(CCCC)C(=O)N2Cc2csc(C)n2)n1Cc1ccc(C(=O)O)cc1Cl`, the Blood pressure turned out to be 100 mmHg in the assay with Monkey [4], 80 mmHg in the assay on Monkey [5] and 85 mmHg with Monkey [10].
For `CCCCc1ncc(/C=C2/C(=O)N(CCCC)C(=O)N2Cc2csc(C)c2)n1Cc1ccc(C(=O)O)cc1`, the IC50 in assay [1] worked out at 0.7 nM; in assay [3], 9.2 nM. In addition, in assay [2], the Maximum blood pressure change is -23%. Also, the Max in the assay on Rattus norvegicus [9] is recorded as -28%.
With `CCCCc1ncc(/C=C2/C(=O)NC(=O)N2CCCC)n1Cc1ccc(C(=O)O)cc1`, the IC50 in assay [1] was 2.8 nM; in [3], 28 nM. Further, in [2], the Maximum blood pressure change was -17%.
For `CCCCCCN1C(=O)/C(=C/c2cnc(CCCC)n2Cc2ccc(C(=O)OC)cc2)N(Cc2csc(C)n2)C1=O`, in that order: 5.3 nM, over 100 nM and -34%.
On to `CCCCc1ncc(/C=C2/C(=O)N(CCCC)C(=O)N2CCCC)n1Cc1ccc(C(=O)O)cc1`, for which the IC50 in assay [1] is on record as 1.3 nM; in assay [3], 14 nM. The Max in the assay on Rattus norvegicus [7] is -21%. The Maximum blood pressure change in assay [2] was -45%.
Turning to `CCCCc1ncc(/C=C2/C(=O)N(CCCC)C(=O)N2Cc2ccccn2)n1Cc1ccc(C(=O)OC)cc1`, the IC50 came to 5.8 nM in [1] and 490 nM in assay [3]. For the same molecule, the Maximum blood pressure change in assay [2] is -20%.
Turning to `CCCCc1ncc(/C=C2/C(=O)NC(=O)N2Cc2cccs2)n1Cc1ccc(C(=O)OC)cc1`, the IC50 came to 7.1 nM in assay [1] and 28 nM in assay [3]. Moreover, the Maximum blood pressure change in assay [2] is -19%.
